This is an account of results in patent publication US20120225862A1, “HETEROARYL BENZAMIDES, COMPOSITIONS AND METHODS OF USE” (AUCKLAND UNIVSERVICES LIMITED, priority 2009, published 2012).

The subject of assay [1] is RCC4/VHL. The experiment in a line: XTT IC50 assay, selectivity RCC4 versus RCC4 with VHL-reintroduced. The class given is cell-based, human. Particulars: selectivity ratio of XTT IC50 values, RCC4 vs RCC4/VHL. The procedure, abridged:
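RCC4 parental and VHL-reintroduced RCC4/VHL cells (DMEM, 10% FCS) treated with serially diluted drug for four days. Viability by XTT (0.3 mg/mL) with N-methyl dibenzopyrazine methyl sulfate, 1–2 h at 37 °C, absorbance 450 nm; IC50 by linear interpolation.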

The next assay has as its system LC3. The experiment in a line: Autophagy markers (vacuoles, LC3 processing). The class given is cell-based, human. Particulars: RCC4 and RCC4/VHL, 1.25, 2.5 and 5 μM. Here is the method: (A) Clonogenic survival of RCC4 and RCC4/VHL treated with […] (5 μM)(*p<0.05). All error bars represent the standard error of the mean. […] RCC4 and RCC4/VHL cells were treated with increasing concentrations of compound 47 (1.25, 2.5 and 5 μM), a negative control (DMSO) and a positive control (4-(pyridin-4-yl)-N-(m-tolyl)thiazol-2-amine). Cells were lysed and probed for LC3, a marker of autophagy, or α-tubulin (loading control). […] RCC4 and RCC4/VHL cells were treated with vehicle, increasing concentrations of compound 47, and camptothecin. Cells were stained with DAPI and nuclear condensation was examined by fluorescence microscopy. (D) RCC4 cells were treated with compound 47 (5 μM) for the indicated time and stained with Annexin V and propidium iodide and subjected to FACS analysis. […] RCC4 and RCC4/VHL cells were subjected to increasing concentrations of compound 47 (1.25, 2.5, and 5 μM), a negative control (DMSO), and a positive control (doxorubicin). Cells were lysed and subjected to Western blot with the indicated antibodies.
However, RCC cells without VHL undergo a necrotic cell death in response to compound 47 as measured by the ability of the cells to exclude trypan blue, an indicator of cell membrane integrity.

Assay [2] concerns RCC4/VHL. The experiment in a line: Lactate production (glycolysis), RCC4/VHL. The class given is cell-based, human. To be noted: 5 μM. Here is the method: (§1) All cells were grown in DMEM+10% FCS. ACHN and ACHN shVHL were a kind gift from George V. Thomas (UCLA). HIF overexpressing clones were described previously. Transfection of RNA oligos were performed with DnarmaFECT Reagent 1 (Dharmcon), according to manufacturer's directions. ON-TARGETplus SMART pools against HIF-1β/ARNT were purchased from Dharmacon. Glut1 was detected with anti-GLUT1 antibody from NeoMarkers/LabVision/Fisher. Pyruvate/lactate levels and hexokinase activity were both measured by fluorometric assay (BioVision and Sigma-Aldrich, respectively). ATP levels were measured by bioluminescence assay (ATP Determination Kit from Molecular Probes/Invitrogen). In vitro kinase activities were performed by Millipore KinaseProfiler. Affi-Gel 10 (BioRad) activated affinity media was coupled to analogs to generate immobilized affinity linkers.
As the central mediator of oxygen homeostasis, HIF plays an important role in the cellular adaptation to low oxygen conditions through the regulation of genes involved in metabolism and energy production. Inactivation of VHL results in an increase in the half-life of HIF protein. […] To examine whether this compound alters the rate of glycolysis in VHL-deficient cells, we measured the intracellular production of lactate, which is rapidly converted from pyruvate, the end-product of glycolysis. […]

The target in another assay is T1, CDK1/cyclinB (Homo sapiens, UniProt P06493).
T1 construct: purchased Millipore (KinaseProfiler service)
T1 sequence (P06493 whole entry, species assumed): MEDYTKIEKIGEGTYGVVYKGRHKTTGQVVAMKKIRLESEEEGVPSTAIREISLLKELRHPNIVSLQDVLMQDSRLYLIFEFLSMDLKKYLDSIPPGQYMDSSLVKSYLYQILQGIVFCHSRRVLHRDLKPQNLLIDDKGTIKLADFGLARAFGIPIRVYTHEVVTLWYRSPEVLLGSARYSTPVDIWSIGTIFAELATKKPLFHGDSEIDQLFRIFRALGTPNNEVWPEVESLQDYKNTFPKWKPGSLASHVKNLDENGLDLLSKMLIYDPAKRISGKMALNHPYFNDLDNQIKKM
T1 sequence (P14635 whole entry partner, species assumed): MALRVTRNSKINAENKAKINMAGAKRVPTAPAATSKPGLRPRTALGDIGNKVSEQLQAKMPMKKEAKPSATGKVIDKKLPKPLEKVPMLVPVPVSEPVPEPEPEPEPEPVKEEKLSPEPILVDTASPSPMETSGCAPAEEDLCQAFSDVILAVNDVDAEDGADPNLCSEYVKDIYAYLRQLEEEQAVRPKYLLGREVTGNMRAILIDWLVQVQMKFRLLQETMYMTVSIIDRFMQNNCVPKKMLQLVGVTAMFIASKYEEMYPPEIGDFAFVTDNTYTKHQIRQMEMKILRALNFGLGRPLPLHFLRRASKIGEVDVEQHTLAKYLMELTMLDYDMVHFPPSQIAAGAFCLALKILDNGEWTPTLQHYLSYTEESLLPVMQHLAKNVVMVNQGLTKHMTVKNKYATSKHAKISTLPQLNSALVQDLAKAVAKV
The experiment in a line: In vitro kinase activity (Millipore KinaseProfiler): CDK1/cyclinB. In kind it is biochemical. Particulars: no head or unit printed. Here is the method:
as §1
(§2) We next wanted to investigate the differential glucose uptake between RCCs with and without VHL treated with compound 47 that subsequently lead to the selective death of VHL-deficient cells. We first examined the message levels of the two main glucose transporters, GLUT1 and GLUT2 by quantitative real-time PCR. GLUT1 is an inducible, high-affinity glucose transporter, while GLUT2 is the glucose transporter responsible for basal glucose uptake. […] Cells deficient in VHL had very low levels of GLUT2 that could barely be detected (FIG. 3J). […]

Another assay has as its target T2, IKKα (Homo sapiens, UniProt O15111).
T2 construct: purchased Millipore (KinaseProfiler service)
The experiment in a line: In vitro kinase activity (Millipore KinaseProfiler): IKKα. The class given is biochemical. To be noted: no head or unit printed. On the procedure: as §1, §2

T2 sequence (O15111 whole entry, species assumed): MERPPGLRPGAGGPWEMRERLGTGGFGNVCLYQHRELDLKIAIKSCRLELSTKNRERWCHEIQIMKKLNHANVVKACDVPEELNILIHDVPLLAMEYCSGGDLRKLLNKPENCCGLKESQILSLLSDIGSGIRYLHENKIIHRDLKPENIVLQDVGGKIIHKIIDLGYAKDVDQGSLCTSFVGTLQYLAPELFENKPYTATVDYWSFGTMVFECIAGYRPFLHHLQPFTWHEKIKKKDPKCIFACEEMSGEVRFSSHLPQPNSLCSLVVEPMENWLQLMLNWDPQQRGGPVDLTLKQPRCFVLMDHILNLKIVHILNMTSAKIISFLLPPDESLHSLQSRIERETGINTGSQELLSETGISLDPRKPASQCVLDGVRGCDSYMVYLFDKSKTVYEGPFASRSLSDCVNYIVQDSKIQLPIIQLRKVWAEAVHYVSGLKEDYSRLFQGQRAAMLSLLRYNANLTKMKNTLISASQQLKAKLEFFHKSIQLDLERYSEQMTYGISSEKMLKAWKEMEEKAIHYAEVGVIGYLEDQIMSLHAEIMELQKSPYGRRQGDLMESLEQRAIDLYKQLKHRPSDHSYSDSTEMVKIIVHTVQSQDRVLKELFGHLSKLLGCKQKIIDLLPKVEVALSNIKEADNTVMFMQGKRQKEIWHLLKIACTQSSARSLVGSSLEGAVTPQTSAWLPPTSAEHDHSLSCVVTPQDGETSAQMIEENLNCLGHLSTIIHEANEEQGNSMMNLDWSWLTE

`CC(C)(C)c1ccc(S(=O)(=O)NCc2ccc(C(=O)Nc3cccnc3)cc2)cc1` [Example 38, 4-((4-tert-Butylphenylsulfonamido)methyl)-N-(pyridin-3-yl)benzamide]: in the assay with RCC4/VHL [1], the “Ratio (RCC4:RCC/VHL)” value is on record as “c (“c” reflects a ratio of >100)”. Further, in the assay with LC3, the “induction of autophagy (vacuoles, LC3 processing)” value is recorded as “did not induce any morphologic or biochemical features of autophagy”. Moreover, in the assay with RCC4/VHL [2], the “effect on glycolysis (lactate) in cells with wild-type VHL” value was “did not affect glycolysis”. The CDK1/cyclinB kinase activity at CDK1/cyclinB was found to be 96. Besides, at IKKα, the IKKα kinase activity came out at 102.
